[ ]: non-standard residue; d: D form.
Tested on: primary human T-cells
Assay: Cytokine secretion on protein level in activated primary human T-cells (13-plex FACS / Luminex, supernatant)
Type: cell-based
How it was run: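 First, T-cells are isolated from healthy donors' blood. Next, they and HaCaT keratinocytes are activated for 48 h with PMA/Ionomycin or IFN-γ in the presence of tripeptides. Finally, secreted cytokines are quantified in supernatants by 13-plex FACS at 48 and 72 h.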

[1] = primary human T-cells stimulated with IFN-γ, 10^−9M
[2] = primary human T-cells stimulated with IFN-γ, substance 10^−9M
[3] = primary human T-cells stimulated with PBS, 10^−9M
[4] = primary human T-cells stimulated with PBS, substance 10^−9M
[5] = primary human T-cells stimulated with PMA/Ionomycin, 10^−9M
[6] = primary human T-cells stimulated with PMA/Ionomycin, substance 10^−9M

## H-Lys-[dP]-Thr-OH [K(D)PT, reference compound]
[1]
  IL-1 cytokine concentration: 335.73 pg/mL
  IL-2 cytokine concentration: 79.24 pg/mL
  IL-4 cytokine concentration: 184.31 pg/mL
  IL-5 cytokine concentration: 249.7 pg/mL
  IL-6 cytokine concentration: 93.02 pg/mL
  IL-9 cytokine concentration: 93.74 pg/mL
  IL-10 cytokine concentration: 169.54 pg/mL
  IL-12p70 cytokine concentration: 895.95 pg/mL
  IL-13 cytokine concentration: 72.09 pg/mL
  IL-17 cytokine concentration: 204.05 pg/mL
  IL-22 cytokine concentration: 22747.7 pg/mL
  TNF-α cytokine concentration: 178.65 pg/mL
[2]
  IL-1 cytokine concentration: 0 pg/mL
  IL-2 cytokine concentration: 0 pg/mL
  IL-4 cytokine concentration: 0 pg/mL
  IL-5 cytokine concentration: 0 pg/mL
  IL-6 cytokine concentration: 58.47 pg/mL
  IL-9 cytokine concentration: 9.51 pg/mL
  IL-10 cytokine concentration: 33.21 pg/mL
  IL-12 cytokine concentration: 0 pg/mL
  IL-12p70 cytokine concentration: 0 pg/mL
  IL-13 cytokine concentration: 0 pg/mL
  IL-17 cytokine concentration: 0 pg/mL
  IL-22 cytokine concentration: 0 pg/mL
  TNF-α cytokine concentration: 0 pg/mL
[3]
  IFN-γ cytokine concentration: 610.05 pg/mL
  IL-1 cytokine concentration: 268.37 pg/mL
  IL-2 cytokine concentration: 435.34 pg/mL
  IL-4 cytokine concentration: 136.29 pg/mL
  IL-5 cytokine concentration: 0 pg/mL
  IL-6 cytokine concentration: 92.39 pg/mL
  IL-9 cytokine concentration: 102.2 pg/mL
  IL-10 cytokine concentration: 126.13 pg/mL
  IL-12p70 cytokine concentration: 114.67 pg/mL
  IL-13 cytokine concentration: 80.48 pg/mL
  IL-17 cytokine concentration: 182.45 pg/mL
  IL-22 cytokine concentration: 0 pg/mL
  TNF-α cytokine concentration: 160.25 pg/mL
[4]
  IFN-γ cytokine concentration: 0 pg/mL
  IL-1 cytokine concentration: 147.97 pg/mL
  IL-2 cytokine concentration: 0 pg/mL
  IL-4 cytokine concentration: 0 pg/mL
  IL-5 cytokine concentration: 0 pg/mL
  IL-6 cytokine concentration: 109.89 pg/mL
  IL-9 cytokine concentration: 0 pg/mL
  IL-10 cytokine concentration: 159.09 pg/mL
  IL-12 cytokine concentration: 0 pg/mL
  IL-12p70 cytokine concentration: 0 pg/mL
  IL-13 cytokine concentration: 172.66 pg/mL
  IL-17 cytokine concentration: 127.21 pg/mL
  IL-22 cytokine concentration: 0 pg/mL
  INF-α cytokine concentration: 0 pg/mL
  TNF-a cytokine concentration: 65.47 pg/mL
  TNF-α cytokine concentration: 65.47 pg/mL
[5]
  IFN-γ cytokine concentration: 1854.29 pg/mL
  IL-1 cytokine concentration: 69689.2 pg/mL
  IL-2 cytokine concentration: 12000 pg/mL
  IL-4 cytokine concentration: 235.78 pg/mL
  IL-5 cytokine concentration: 173.34 pg/mL
  IL-6 cytokine concentration: 2058.24 pg/mL
  IL-9 cytokine concentration: 162.4 pg/mL
  IL-10 cytokine concentration: 4936.79 pg/mL
  IL-12p70 cytokine concentration: 1703.5 pg/mL
  IL-13 cytokine concentration: 944.87 pg/mL
  IL-17 cytokine concentration: 3116.43 pg/mL
  IL-22 cytokine concentration: 24079 pg/mL
  TNF-α cytokine concentration: 3600 pg/mL
[6]
  IFN-γ cytokine concentration: 12070.4 pg/mL
  IL-1 cytokine concentration: 594.38 pg/mL
  IL-2 cytokine concentration: 3486.84 pg/mL
  IL-4 cytokine concentration: 41.83 pg/mL
  IL-5 cytokine concentration: 379.39 pg/mL
  IL-6 cytokine concentration: 1535.49 pg/mL
  IL-9 cytokine concentration: 332.07 pg/mL
  IL-10 cytokine concentration: 877.54 pg/mL
  IL-12 cytokine concentration: 0 pg/mL
  IL-12p70 cytokine concentration: 0 pg/mL
  IL-13 cytokine concentration: 1158.74 pg/mL
  IL-17 cytokine concentration: 1808.01 pg/mL
  IL-22 cytokine concentration: 0 pg/mL
  INF-α cytokine concentration: 12070.42 pg/mL
  TNF-a cytokine concentration: 3998.01 pg/mL
  TNF-α cytokine concentration: 3998.01 pg/mL

## alpha-melanocyte-stimulating hormone [α-MSH, reference compound]
[1]
  IL-1 cytokine concentration: 229 pg/mL
  IL-2 cytokine concentration: 0 pg/mL
  IL-4 cytokine concentration: 136.29 pg/mL
  IL-5 cytokine concentration: 145.89 pg/mL
  IL-6 cytokine concentration: 70.19 pg/mL
  IL-9 cytokine concentration: 90.3 pg/mL
  IL-10 cytokine concentration: 109.15 pg/mL
  IL-12p70 cytokine concentration: 727.17 pg/mL
  IL-13 cytokine concentration: 59.46 pg/mL
  IL-17 cytokine concentration: 125.8 pg/mL
  IL-22 cytokine concentration: 0 pg/mL
  TNF-α cytokine concentration: 155.15 pg/mL
[2]
  IL-1 cytokine concentration: 0 pg/mL
  IL-2 cytokine concentration: 0 pg/mL
  IL-4 cytokine concentration: 60.49 pg/mL
  IL-5 cytokine concentration: 0 pg/mL
  IL-6 cytokine concentration: 64.54 pg/mL
  IL-9 cytokine concentration: 5.27 pg/mL
  IL-10 cytokine concentration: 43.9 pg/mL
  IL-12 cytokine concentration: 0 pg/mL
  IL-12p70 cytokine concentration: 0 pg/mL
  IL-13 cytokine concentration: 0 pg/mL
  IL-17 cytokine concentration: 0 pg/mL
  IL-22 cytokine concentration: 0 pg/mL
  TNF-α cytokine concentration: 18.85 pg/mL
[3]
  IFN-γ cytokine concentration: 584.13 pg/mL
  IL-1 cytokine concentration: 233.71 pg/mL
  IL-2 cytokine concentration: 166.83 pg/mL
  IL-4 cytokine concentration: 158.58 pg/mL
  IL-5 cytokine concentration: 26.63 pg/mL
  IL-6 cytokine concentration: 103.97 pg/mL
  IL-9 cytokine concentration: 93.72 pg/mL
  IL-10 cytokine concentration: 154.89 pg/mL
  IL-12p70 cytokine concentration: 100.99 pg/mL
  IL-13 cytokine concentration: 74.71 pg/mL
  IL-17 cytokine concentration: 123.27 pg/mL
  IL-22 cytokine concentration: 2258.05 pg/mL
  TNF-α cytokine concentration: 127.96 pg/mL
[4]
  IFN-γ cytokine concentration: 0 pg/mL
  IL-1 cytokine concentration: 0 pg/mL
  IL-2 cytokine concentration: 139.68 pg/mL
  IL-4 cytokine concentration: 72.42 pg/mL
  IL-5 cytokine concentration: 14.37 pg/mL
  IL-6 cytokine concentration: 117.88 pg/mL
  IL-9 cytokine concentration: 34.99 pg/mL
  IL-10 cytokine concentration: 164.01 pg/mL
  IL-12 cytokine concentration: 0 pg/mL
  IL-12p70 cytokine concentration: 0 pg/mL
  IL-13 cytokine concentration: 185.71 pg/mL
  IL-17 cytokine concentration: 139.74 pg/mL
  IL-22 cytokine concentration: 0 pg/mL
  INF-α cytokine concentration: 0 pg/mL
  TNF-a cytokine concentration: 59.06 pg/mL
  TNF-α cytokine concentration: 59.06 pg/mL
[5]
  IFN-γ cytokine concentration: 1049.41 pg/mL
  IL-1 cytokine concentration: 69689.2 pg/mL
  IL-2 cytokine concentration: 12000 pg/mL
  IL-4 cytokine concentration: 200.9 pg/mL
  IL-5 cytokine concentration: 145.89 pg/mL
  IL-6 cytokine concentration: 1542.01 pg/mL
  IL-9 cytokine concentration: 187.5 pg/mL
  IL-10 cytokine concentration: 4311.06 pg/mL
  IL-12p70 cytokine concentration: 1161.04 pg/mL
  IL-13 cytokine concentration: 462.62 pg/mL
  IL-17 cytokine concentration: 2836.14 pg/mL
  IL-22 cytokine concentration: 24400.4 pg/mL
  TNF-α cytokine concentration: 3600 pg/mL
[6]
  IFN-γ cytokine concentration: 10814.4 pg/mL
  IL-1 cytokine concentration: 530.55 pg/mL
  IL-2 cytokine concentration: 2307.5 pg/mL
  IL-4 cytokine concentration: 70.32 pg/mL
  IL-5 cytokine concentration: 278.92 pg/mL
  IL-6 cytokine concentration: 1241.17 pg/mL
  IL-9 cytokine concentration: 264.59 pg/mL
  IL-10 cytokine concentration: 977.83 pg/mL
  IL-12 cytokine concentration: 0 pg/mL
  IL-12p70 cytokine concentration: 0 pg/mL
  IL-13 cytokine concentration: 1065.69 pg/mL
  IL-17 cytokine concentration: 1660.92 pg/mL
  IL-22 cytokine concentration: 0 pg/mL
  INF-α cytokine concentration: 10814.35 pg/mL
  TNF-a cytokine concentration: 3346.46 pg/mL
  TNF-α cytokine concentration: 3346.46 pg/mL
